Measured values reported in article PMC5285354, “Cationic Net Charge and Counter Ion Type as Antimicrobial Activity Determinant Factors of Short Lipopeptides” (Frontiers in Microbiology, 2017).
≈ marks a conversion by molar mass, not a printed value. Read-outs that look alike come from different tables or passages of the source. Where a SMILES comes first, the peptide text is derived from it. The star is where a group is joined. Lauroyl = CCCCCCCCCCCC(=O)*

Columns and labels:
Type in all cases: cell-based
[1] = test system: Pseudomonas aeruginosa (ATCC 9027); conditions: ATCC 9027, 24 h
human red blood cells = conditions: 1 h
Procedure: The hemolytic activity of the lipopeptides was determined by exposing human red blood cells (4% v/v) to tested compounds at graded concentrations. Red blood cells were obtained from a healthy donor. EDTA was used to prevent the blood clotting. The plasma was removed via centrifugation and the erythrocytes were washed three times with PBS. The red blood cells were suspended in PBS and incubated with different concentrations of lipopeptides at 37°C for 1 h and centrifuged for 5 min at 1000 × g. The supernatants were transferred to a sterile 96-well plate and hemoglobin release was measured with an Epoch microplate spectrophotometer (BioTek, USA) by recording the absorbance at 550 nm. A 0.1% Triton X-100 solution was used as the positive control (100% of hemolysis) and pure PBS as the negative (0% of hemolysis). Minimum hemolytic concentration (MHC) was taken as the lowest concentration which induced 10% of hemolysis.

[2] = test system: Candida tropicalis (PCM 2681); conditions: PCM 2681, 48 h
Procedure: (§1) The minimum inhibitory concentration (MIC), minimum bactericidal concentration (MBC) and minimum fungicidal concentration (MFC) were determined according to the procedure recommended by the Clinical Laboratory Standards Institute (CLSI). The following reference strains were tested: Gram-negative E. coli (ATCC 25922), K. pneumoniae (ATCC 700603), P. vulgaris (PCM 2668), P. aeruginosa (ATCC 9027), Gram-positive S. aureus (ATCC 25923), S. epidermidis (PCM 2118), B. subtilis (ATCC 6633), E. faecalis (ATCC 29212) and fungi C. albicans (ATCC 10231), C. tropicalis (PCM 2681), and A. brasiliensis (ATCC 16404). All the microorganisms were from the Polish Collection of Microorganisms (Wroclaw, Poland). MIC was determined using a microbroth dilution method with Mueller-Hinton (MH) broth for bacteria and Sabouraud Dextrose broth for fungi (Becton Dickinson, Le Pont de Claix, France). An initial inoculum of 10^5 cfu/mL was used for bacteria and 10^3 cfu/mL for fungi. Polypropylene 96-well plates (Kartell, Noviglio, Italy) were incubated for 18 h at 37°C for bacteria and for 48 h at 25°C for the tested fungi. MIC (μg/mL) was taken as the lowest concentration of the lipopeptide, at which the observable growth was inhibited. […] The experiments were performed in triplicate on three different days.

[3] = test system: Staphylococcus aureus (ATCC 25923); conditions: for MIC Staphylococcus aureus: ATCC 25923, 18 h
Procedure: as §1

[4] = test system: Candida albicans (ATCC 10231); conditions: ATCC 10231, 48 h
Procedure: as §1

[5] = test system: Klebsiella pneumoniae (ATCC 700603); conditions: for MBC Klebsiella pneumoniae: ATCC 700603, 24 h; for MIC Klebsiella pneumoniae: ATCC 700603, 18 h
Procedure: as §1

[6] = test system: Staphylococcus epidermidis (PCM 2118); conditions: for MIC Staphylococcus epidermidis: PCM 2118, 18 h; for MBC Staphylococcus epidermidis: PCM 2118, 24 h
Procedure: as §1

[7] = test system: Bacillus subtilis (ATCC 6633); conditions: for MIC Bacillus subtillis: ATCC 6633, 18 h; for MBC Bacillus subtillis: ATCC 6633, 24 h
Procedure: as §1

[8] = test system: Proteus vulgaris (PCM 2668); conditions: for MBC Proteus vulgaris: subculture on Mueller-Hinton II Agar, 24 h 37°C
Procedure: as §1

[9] = test system: Pseudomonas aeruginosa (ATCC 9027); conditions: ATCC 9027, 18 h
Procedure: as §1

[10] = test system: Escherichia coli (ATCC 25922); conditions: for MBC Escherichia coli: ATCC 25922, 24 h; for MIC Escherichia coli: ATCC 25922, 18 h
Procedure: as §1

[11] = test system: Aspergillus brasiliensis (ATCC 16404); conditions: ATCC 16404, 48 h
Procedure: as §1

[12] = test system: Enterococcus faecalis (ATCC 29212)
Procedure: as §1

[13] = PCM 2668, TFA salt, Mueller-Hinton broth, 10^5 cfu/mL, 18 h 37°C, triplicate

| MIC Candida tropicalis [2] | MIC Candida albicans [4] | MIC Staphylococcus epidermidis [6] | MIC Bacillus subtillis [7] | MIC Proteus vulgaris [8, 13] | MIC Pseudomonas aeruginosa [9] | MIC Aspergillus brasiliensis [11] | MIC Staphylococcus aureus [3] | MIC Klebsiella pneumoniae [5] | MIC Enterococcus fecalis ([12]; ATCC 29212, 18 h) | Compound | MBC Pseudomonas aeruginosa [1] | Hemolysis HC10 (MHC), concentration of lipopeptide inducing 10% of hemolysis (human red blood cells) | MFC Candida tropicalis [2] | MBC Staphylococcus aureus ([3]; ATCC 25923, 24 h) | MFC Candida albicans [4] | MBC Klebsiella pneumoniae [5] | MBC Staphylococcus epidermidis [6] | MBC Bacillus subtillis [7] | MBC Escherichia coli [10] | MFC Aspergillus brasiliensis [11] | also measured |
| --- | --- | --- | --- | --- | --- | --- | --- | --- | --- | --- | --- | --- | --- | --- | --- | --- | --- | --- | --- | --- | --- |
| 2000 µg/mL (≈ 3900 µM) | 2000 µg/mL (≈ 3900 µM) | 64 µg/mL (≈ 125 µM) | 512 µg/mL (≈ 999 µM) | >2000 µg/mL | 1000 µg/mL (≈ 1950 µM) | 1000 µg/mL (≈ 1950 µM) |  |  |  | CCCCCCCCCCCC(=O)N[C@@H](CCCCN)C(=O)NCC(=O)N[C@@H](CCCCN)C(N)=O [C12-KGK-NH2] (Lauroyl-Lys-Gly-Lys-NH2) | 1000 µg/mL (≈ 1950 µM) | 1000 µg/mL | 2000 µg/mL (≈ 3900 µM) | 1000 µg/mL (≈ 1950 µM) | 2000 µg/mL (≈ 3900 µM) | 1000 µg/mL (≈ 1950 µM) | 128 µg/mL (≈ 250 µM) | 1000 µg/mL (≈ 1950 µM) | 1000 µg/mL (≈ 1950 µM) | 2000 µg/mL (≈ 3900 µM) |  |
| 1000 µg/mL (≈ 1710 µM) | 1000 µg/mL (≈ 1710 µM) | 64 µg/mL (≈ 110 µM) | 64 µg/mL (≈ 110 µM) | >2000 µg/mL | 512 µg/mL (≈ 877 µM) | 512 µg/mL (≈ 877 µM) | 1000 µg/mL (≈ 1710 µM) | 1000 µg/mL (≈ 1710 µM) | 512 µg/mL (≈ 877 µM) | CCCCCCCCCCCC(=O)N[C@@H](CCCCN)C(=O)N[C@@H](CCCCN)C(=O)N[C@@H](CCCCN)C(N)=O [C12-KKK-NH2] |  | 512 µg/mL | 1000 µg/mL (≈ 1710 µM) | 1000 µg/mL (≈ 1710 µM) | 1000 µg/mL (≈ 1710 µM) | 1000 µg/mL (≈ 1710 µM) | 64 µg/mL (≈ 110 µM) | 128 µg/mL (≈ 219 µM) | 1000 µg/mL (≈ 1710 µM) | 512 µg/mL (≈ 877 µM) | MBC Enterococcus fecalis ([12]; ATCC 29212, 24 h): 512 µg/mL (≈ 877 µM) |
| 256 µg/mL (≈ 360 µM) | 256 µg/mL (≈ 360 µM) | 64 µg/mL (≈ 89.9 µM) | 128 µg/mL (≈ 180 µM) | >2000 µg/mL |  | 128 µg/mL (≈ 180 µM) | 1000 µg/mL (≈ 1400 µM) |  | 512 µg/mL (≈ 719 µM) | CCCCCCCCCCCC(=O)N[C@@H](CCCCN)C(=O)N[C@@H](CCCCN)C(=O)N[C@@H](CCCCN)C(=O)N[C@@H](CCCCN)C(N)=O [C12-KKKK-NH2] (Lauroyl-KKKK-NH2) |  | 1000 µg/mL | 512 µg/mL (≈ 719 µM) | 1000 µg/mL (≈ 1400 µM) | 256 µg/mL (≈ 360 µM) | 1000 µg/mL (≈ 1400 µM) | 64 µg/mL (≈ 89.9 µM) | 256 µg/mL (≈ 360 µM) | 256 µg/mL (≈ 360 µM) | 256 µg/mL (≈ 360 µM) | MBC Enterococcus fecalis ([12]; ATCC 29212, 24 h): 512 µg/mL (≈ 719 µM); MIC Escherichia coli [10]: 256 µg/mL (≈ 360 µM) |
| 256 µg/mL (≈ 782 µM) | 256 µg/mL (≈ 782 µM) | 128 µg/mL (≈ 391 µM) | 128 µg/mL (≈ 391 µM) |  | 128 µg/mL (≈ 391 µM) | 256 µg/mL (≈ 782 µM) | 256 µg/mL (≈ 782 µM) | 256 µg/mL (≈ 782 µM) | 256 µg/mL (≈ 782 µM) | CCCCCCCCCCCC(=O)N[C@@H](CCCCN)C(N)=O [C12-K-NH2] | 256 µg/mL (≈ 782 µM) | 1000 µg/mL | 512 µg/mL (≈ 1560 µM) | 256 µg/mL (≈ 782 µM) | 512 µg/mL (≈ 1560 µM) | 256 µg/mL (≈ 782 µM) | 128 µg/mL (≈ 391 µM) | 256 µg/mL (≈ 782 µM) | 256 µg/mL (≈ 782 µM) | 512 µg/mL (≈ 1560 µM) | MBC Enterococcus fecalis ([12]; ATCC 29212, 24 h): 256 µg/mL (≈ 782 µM); MIC Proteus vulgaris ([8]; 18 h): >512 µg/mL; MBC Proteus vulgaris ([8]; PCM 2668, TFA salt, triplicate): >1000 µg/mL; MIC Escherichia coli [10]: 256 µg/mL (≈ 782 µM) |
| 1000 µg/mL (≈ 2190 µM) | 1000 µg/mL (≈ 2190 µM) | 64 µg/mL (≈ 140 µM) | 64 µg/mL (≈ 140 µM) | >2000 µg/mL | 2000 µg/mL (≈ 4390 µM) | 2000 µg/mL (≈ 4390 µM) | 2000 µg/mL (≈ 4390 µM) | 2000 µg/mL (≈ 4390 µM) | 512 µg/mL (≈ 1120 µM) | CCCCCCCCCCCC(=O)N[C@@H](CCCCN)C(=O)N[C@@H](CCCCN)C(N)=O [C12-KK-NH2] | 2000 µg/mL (≈ 4390 µM) |  | 2000 µg/mL (≈ 4390 µM) | 2000 µg/mL (≈ 4390 µM) | 2000 µg/mL (≈ 4390 µM) | 2000 µg/mL (≈ 4390 µM) | 64 µg/mL (≈ 140 µM) | 128 µg/mL (≈ 281 µM) | 2000 µg/mL (≈ 4390 µM) | 2000 µg/mL (≈ 4390 µM) | MBC Enterococcus fecalis ([12]; ATCC 29212, 24 h): 512 µg/mL (≈ 1120 µM); MBC Proteus vulgaris ([8]; PCM 2668, TFA salt, triplicate): >2000 µg/mL; MIC Escherichia coli [10]: 2000 µg/mL (≈ 4390 µM) |
| 1000 µg/mL (≈ 3340 µM) | 1000 µg/mL (≈ 3340 µM) | 1000 µg/mL (≈ 3340 µM) | 1000 µg/mL (≈ 3340 µM) | >2000 µg/mL | 512 µg/mL (≈ 1710 µM) | 512 µg/mL (≈ 1710 µM) | 1000 µg/mL (≈ 3340 µM) | 1000 µg/mL (≈ 3340 µM) |  | CCCCCCCCCC(=O)N[C@@H](CCCCN)C(N)=O [C10-K-NH2] | 1000 µg/mL (≈ 3340 µM) |  | 2000 µg/mL (≈ 6680 µM) |  | 2000 µg/mL (≈ 6680 µM) | 1000 µg/mL (≈ 3340 µM) | 1000 µg/mL (≈ 3340 µM) | 1000 µg/mL (≈ 3340 µM) | 1000 µg/mL (≈ 3340 µM) | 1000 µg/mL (≈ 3340 µM) | MBC Staphylococcus aureus ([3]; ATCC 25923, TFA salt, MIC wells subcultured on Mueller-Hinton II Agar, 24 h 37°C, triplicate): >1000 µg/mL; MIC Enterococcus fecalis ([12]; ATCC 29212, TFA salt, Mueller-Hinton broth, 10^5 cfu/mL, 18 h 37°C, triplicate): >2000 µg/mL; MBC Enterococcus fecalis ([12]; ATCC 29212, TFA salt, subculture on Mueller-Hinton II Agar, 24 h 37°C, triplicate): >2000 µg/mL; MBC Proteus vulgaris ([8]; PCM 2668, TFA salt, triplicate): >2000 µg/mL; MIC Escherichia coli [10]: 1000 µg/mL (≈ 3340 µM) |
